“Also recorded” adds a separate entry of the source. Read-outs that look alike come from different tables or passages of the source.
Legend:
[1] = Phase 1 study, pharmacokinetics in plasma and CSF, food effect; assay type: in vivo, human
Source text: The concentrations of Compound 1 in plasma and CSF were to be assessed in an open-label design in healthy male and female subjects. A single dose of Compound 1 was to be administered daily for 7 days in 1 cohort of 6 subjects (Cohort 3.1). The dose level of Part 3 was to be determined based upon a review of the safety, tolerability, and PK data of Part 1 and Part 2 of the study. While the MAD dose was to be determined further in development, that dose and schedule was to be applied to this part of the study.
Eligibility was to be assessed during a screening period of up to 28 days. Subjects were to check into the clinic 1 day before dosing (Day −1). On the morning of Day 1 to Day 7, Compound 1 was to be orally administered after an overnight fast of at least 10 hours each day. Serial sampling of CSF and sampling of plasma for drug concentrations was to be performed on Day 7. The exact timing of the CSF and blood samples was to be determined based on the results of Part 1 and Part 2. […]
The food effect (FE) part was a parallel, open-label part in healthy male and female subjects in up to 3 cohorts of 6 subjects each. […] The dose levels for this part were to be chosen based upon a review of available safety, tolerability and PK data as determined in Part 1 and Part 2.

HTT mRNA [2] = experiment: Phase 1 study, HTT mRNA in whole blood of healthy volunteers; assay type: in vivo, human; settings: for Mean decrease in full-length HTT mRNA levels: after 14 days of treatment (MAD)
Procedure: The Phase 1 study was conducted in 5 parts: single ascending doses (SAD)(Part 1), multiple ascending doses (MAD)(Part 2), CSF and blood sampling after 7 days of Compound 1 administration (Part 3), food effect (Part 4), and multiple dosing for up to 28 days (Part 5). Part 1, Part 2, and Part 5 are double blind; Part 3 and Part 4 are open-label. Note that Part 3, Part 4, and Part 5 may be conducted concurrently.
The single ascending dose (SAD) part of the study was randomized, double-blinded, and placebo controlled in healthy male and female subjects.
(§1) The multiple ascending (MAD) part of the study was randomized, double-blind, and placebo controlled in healthy male and female subjects. Up to five regimens are planned to be tested in up to 5 cohorts of 8 subjects each (Cohort 2.1 to 2.5). Within each cohort, 6 subjects were to receive Compound 1 and 2 subjects were to receive placebo. Subjects in Cohort 2.1 and 2.2 were to be dosed for 14 days, subjects in Cohort 2.3 to 2.5 were to be dosed for up to 21 days.
The amount of HTT mRNA was then evaluated by RT-PCR 6 hours after administration of Compound 1 on day 14.

HTT mRNA [3] = experiment: PK-PD compartment model and decay-rate modelling of HTT mRNA and protein lowering; set-up: species or system human
Source text: (§2) HTT mRNA reaches steady state after approximately 5 days. For HTT protein, the half-life was estimated to be 5-7 days and consequently HTT protein steady state levels would only be attained about 6 weeks from the beginning of treatment.
(§3) A target 30% to 50% decrease in mHTT is the range associated with decreased pathology and anticipated therapeutic benefit in patients. In the Phase 1 study, Compound 1-mediated HTT pre-mRNA splicing was dose dependent across all cohorts in both the SAD and MAD portions of the study. Mean decreases in full-length HTT mRNA levels of 40% and 60% were observed after 14 days of treatment with Compound 1 at 15 mg and 30 mg, respectively. On the basis of these clinical data, a PK-PD compartment model was used to simulate percentage of mRNA decreases (and thus the anticipated magnitude of HTT protein lowering) at additional potential clinical doses.

[4] = as above; set-up: species or system human; settings: 30 mg daily dose, model based on half-life
Source text: as §2, §3

Rat toxicology, NOAEL = settings: male, in vivo
Procedure: The initial dose in the first cohort was ≤ 1/10 of the human equivalent dose (HED) estimated from the NOAEL (no observed adverse effect level) of the (male) rat, which is the most sensitive species, following the FDA guidance on the maximum recommended starting dose (MRSD) and EMA guidelines. The NOAEL of the rat is 6 mg/kg. […] The HED of 0.97 mg/kg was calculated; this scaled in a 70 kg human to 68 mg. Adjusting this dose to 1/10, the dose of the first cohort was 6.8; the actual administered dose will be 5 mg.

[5] = Phase 1 study, safety and tolerability in healthy subjects; assay type: in vivo, human
Procedure: The study was monitored by a Safety Review Committee (SRC). […] Safety and tolerability were assessed by the SRC between each cohort prior to ascending from one dose level to the next higher dose level in Part 1 (single ascending dose [SAD]) and Part 2 (multiple ascending dose [MAD]), and prior to initiating Part 3 (CSF), Part 4 (FE), and Part 5.
Change from baseline to each scheduled time point up to EOS for vital signs; Change from baseline to each scheduled time point up to EOS for ECG parameters; Change from baseline to each scheduled time point up to EOS for clinical laboratory tests; Changes from baseline in C-SSRS scores (Part 2, Part 3, and Part 5 only); Treatment-emergent adverse events (AEs) up to EOS; Treatment-emergent AEs leading to premature discontinuation of study drug; Treatment-emergent serious adverse events (SAEs) up to EOS; and, Abnormalities in physical examination.

HTT protein = experiment: Phase 1 study, HTT protein in blood of healthy volunteers (MAD); assay type: in vivo, human; settings: after 21 days of treatment (MAD)
Source text: as §1
In untreated cells, there is a steady state level of mRNA and protein because the amount of mRNA or protein being synthesized matches the amount that is being degraded, so that the mRNA and protein levels are the same over time. The addition of Compound 1 triggers the inclusion of the HTT pseudoexon into the transcript which results in the rapid decay of the HTT mRNA and a reduction of HTT mRNA to […]. […] In this example, ˜50% of newly synthesized mRNA was inhibited. Of the HTT mRNA synthesized prior to treatment, about 50% is degraded after 24 hours. The HTT protein level depends on how much mRNA is produced. Thus, a reduction by 50% would cause a 50% reduction of the HTT protein. […] Changes in HTT protein levels were assessed in MAD cohort over a longer period of time. Accordingly, healthy subjects were treated for 21 days before the amount of HTT mRNA and protein was measured in blood samples taken from each subject. […]

## CC1(C)CC(n2nnc3cc(-c4ccc(-n5nccn5)cc4O)nnc32)CC(C)(C)N1 [Compound 1, 2-[3-(2,2,6,6-tetramethylpiperidin-4-yl)-3H-[1,2,3]triazolo[4,5-c]pyridazin-6-yl]-5-(2H-1,2,3-triazol-2-yl)phenol]
[1]; MAD cohort
  drug half-life: long drug half-life
[1]; healthy subjects, 30 mg daily dose
  Compound levels in the CSF compared with plasma: equal to or greater than levels observed in plasma
HTT mRNA [2]; 15 mg
  Mean decrease in full-length HTT mRNA levels: 40%
HTT mRNA [2]; 30 mg
  Mean decrease in full-length HTT mRNA levels: 60%
HTT mRNA [2]; MAD cohort
  maintenance of splicing following the last dose: up to 72 hours
HTT mRNA [2]; MAD: 15 mg or 30 mg for 14 days, 6 hours after dose on day 14
  HTT mRNA in whole blood: dose-dependent lowering of HTT mRNA
HTT mRNA [2]; Multiple Ascending Dose Study
  time for HTT mRNA levels to reach steady state: 4 to 5 days
HTT mRNA [2]; SAD cohort, 24 hours after dose, even with higher concentrations
  total amount of HTT mRNA: about 50 % of baseline
HTT mRNA [2]; SAD cohorts
  persistence of HTT splicing effect post cessation of treatment: 72 h
HTT mRNA [2]; SAD: 5, 15, 45, 90 or 135 mg, 24 hours after dose
  HTT mRNA in whole blood: dose-dependent lowering of HTT mRNA
HTT mRNA [2]; lowest dose tested, both SAD and MAD cohorts
  HTT mRNA lowering (target level achieved): 30-50%
HTT mRNA [3]; 10 mg QD and 20 mg QD, PK-PD compartment model
  predicted percent full-length HTT mRNA decrease from baseline: 30 to 50%
HTT mRNA [3]; 30 mg daily dose, model based on half-life
  predicted time for HTT mRNA to reach steady state: approximately 5 days
[4]
  predicted time for HTT protein steady state levels: about 6 weeks
Rat toxicology, NOAEL; (male) rat, germ cell exfoliation in epididymis and testes, read-out: NOAEL (no observed adverse effect level)
  NOAEL: 6 mg/kg
Rat toxicology, NOAEL; from rat NOAEL, read-out: human equivalent dose (HED) estimated from the NOAEL
  NOAEL: 0.97 mg/kg
[5]; SAD and MAD portions
  dose-limiting toxicities: no events considered to be dose-limiting toxicities
[5]; any dose, SAD and MAD portions
  laboratory abnormalities and ECG findings: no clinically significant laboratory abnormalities or electrocardiogram (ECG) findings
[5]; single doses 5 to 135 mg, multiple doses 15 and 30 mg up to 21 days
  safety and tolerability: well-tolerated with no safety-related findings; also recorded: safe and generally well tolerated
HTT protein
  lowering in the amount of HTT protein: approximately 40%

Reference: patent US20220162610A1, “NOVEL RNA TRANSCRIPT” (PTC Therapeutics, Inc., priority 2020, published 2022)
